Results taken from ChEMBL document CHEMBL1158831, “Meroditerpenoids from a Formosan soft coral Nephthea chabrolii” (J Nat Prod, 2005).

How the values were obtained:
Format in all cases: functional, cell-based
HepG2 = assay: Cytotoxicity against human HepG2 cells after 6 days by MTT method; conditions: HepG2, 144 h
A549 = assay: Cytotoxicity against human A549 cells after 6 days by MTT method; conditions: A549, 144 h
MDA-MB-231 = assay: Cytotoxicity against human MDA-MB-231cells after 6 days by MTT method; conditions: MDA-MB-231, 144 h

| SMILES | IC50 (HepG2) [µM] | IC50 (A549) [µM] | IC50 (MDA-MB-231) [µM] |
| --- | --- | --- | --- |
| CC(C)=CCC/C(=C/CC/C(C)=C/CC/C(C)=C/CC1=CC(=O)C(C)=CC1=O)CO [CHABROLOBENZOQUINONE E] | > 48.8 | > 48.8 | > 48.8 |
| CC(=O)OC/C(=C\CC/C(C)=C/CC/C(C)=C/CC1=CC(=O)C(C)=CC1=O)CCC=C(C)C [CHABROLOBENZOQUINONE F] | 38.1 | 38.1 | 33.2 |
| CC(=O)O[C@H](CC/C(C)=C/CC/C(C)=C/CC1=CC(=O)C(C)=CC1=O)[C@@](C)(O)CCC=C(C)C [CHABROLOBENZOQUINONE H] | > 42.5 | 38 | 31.4 |
| CC(C)=CCC/C(C)=C/CC/C(C)=C/CC[C@](C)(O)/C=C\c1cc(O)c(C)cc1O [CHABROLOHYDROXYBENZOQUINONE E] | > 48.5 | > 48.5 | > 48.5 |
| CC(C)=CCC/C(C)=C/[C@@H](O)C/C(C)=C/CC[C@](C)(O)/C=C\c1cc(O)c(C)cc1O [CHABROLOHYDROXYBENZOQUINONE F] | 44.4 | 42.3 | > 46.7 |
| CC(=O)O[C@H](CC/C(C)=C/CC[C@](C)(O)/C=C\c1cc(O)c(C)cc1O)[C@@](C)(O)CCC=C(C)C [CHABROLOHYDROXYBENZOQUINONE G] | 18.4 | 26.8 | 18 |
| CC(=O)O[C@H](CC/C(C)=C/CCc1ccc2c(c1)C(=O)C(C)=CC2=O)[C@@](C)(O)CCC=C(C)C [CHABROLONAPHTHOQUINONE B] | 12.4 | 33.9 | 4.7 |
| COc1cccc2c1C(=O)c1c(O)c3c(c(O)c1C2=O)C[C@@](O)(C(=O)CO)C[C@@H]3O[C@H]1C[C@H](N)[C@H](O)[C@H](C)O1 [DOXORUBICIN] | 0.17 | 0.17 | 0.07 |
